According to patent US20230391796A1, “GLYCOSIDASE INHIBITORS AND USES THEREOF” (UNIVERSIDAD DE SEVILLA (US) -UNIVERSITY OF SEVILLE (US), priority 2020, published 2023):
Where a name gives a salt, the structure may show the parent alone.

Key:
[1] = target: β-N-acetylglucosaminidase (from bovine kidney); experiment: Inhibition assay against commercial β-N-acetylglucosaminidase (bovine kidney), p-nitrophenyl N-acetyl-β-D-glucosaminide substrate; type: biochemical; conditions: pH 5.5, 37° C.; average of three determinations ± s.e.m.; NI = no inhibition detected at 200 μM; read-out: Bovine kidney Hex
Procedure: (§1) Inhibition Assays Against Commercial β-N-acetylglucosaminidases
(§2) Inhibition constant (Ki) values were determined by spectrophotometrically measuring the residual hydrolytic activities of the glycosidases against p-nitrophenyl N-acetyl-β-D-glucosaminide. […] Each assay was performed in phosphate-citrate buffer and the reactions were initiated by addition of the enzyme to a solution of the substrate in the absence or presence of various inhibitor concentrations. The mixture was incubated for 10-30 min at 37° C. and the reaction was quenched by addition of 1 M Na2CO3. Reaction times were appropriate to obtain 10-20% conversion of the substrate in order to achieve linear rates. The absorbance of the resulting mixture was determined at 405 nm. Approximate values of Ki were determined using a fixed concentration of substrate (around the Km value for the different glycosidases) and various inhibitor concentrations. Full Ki determinations and enzyme inhibition mode were determined from the slope of Lineweaver-Burk plots and double reciprocal analysis using a Microsoft Office Excel 2007 program.

[2] = test system: Total hHex; experiment: Inhibition of total hHex; type: biochemical, human; conditions: IC50 for total hHexA; NI = no inhibition detected at 200 μM
[3] = target: T1, Recombinant Human Hexosaminidase A (HexA) (Homo sapiens, UniProt P06865); experiment: Inhibition assay against rhHexA, 4-methylumbelliferone-N-acetyl-β-D-glucosaminide fluorescence; type: biochemical; conditions: IC50 for lysosomal hHexA; NI = no inhibition detected at 200 μM
T1 construct: purchased R&D Systems 6237-GH-020
T1 sequence (P06865 89-529): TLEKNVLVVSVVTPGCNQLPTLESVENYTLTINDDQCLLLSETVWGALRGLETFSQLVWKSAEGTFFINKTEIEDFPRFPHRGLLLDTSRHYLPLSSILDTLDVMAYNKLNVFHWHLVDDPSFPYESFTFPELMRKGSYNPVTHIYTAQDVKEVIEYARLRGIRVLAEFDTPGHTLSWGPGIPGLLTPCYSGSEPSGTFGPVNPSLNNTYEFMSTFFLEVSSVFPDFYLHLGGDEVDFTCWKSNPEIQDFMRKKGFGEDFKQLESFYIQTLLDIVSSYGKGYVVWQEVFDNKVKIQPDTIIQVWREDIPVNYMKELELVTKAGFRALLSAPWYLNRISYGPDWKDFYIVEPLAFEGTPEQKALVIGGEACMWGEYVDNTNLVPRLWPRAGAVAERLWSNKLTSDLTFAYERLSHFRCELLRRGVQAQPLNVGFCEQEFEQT
Procedure: Inhibition Assays Against rhHexA
Human Hexosaminidase A (HexA) enzyme, purchased from R&D Systems (cat# 6237-GH-020), were determined by measuring the fluorescent signal corresponding to the rate of hydrolytic activity against the commercially available artificial substrate, 4-Methylumbelliferone-N-acetyl-β-D-glucosaminide. HexA activity assays were performed in a buffer of 100 mM sodium citrate, 250 NaCl, pH 4.5 and 1.0 nM [HexA], then stopped after 20 minutes with a solution of 1.0 M Tris, pH 9.5 to enhance fluorescent signal. Preliminary experiments have shown that reaction rates are linear for 20 minutes after substrate addition, and that 1.0 M Tris at pH 9.5 is sufficient for stopping activity, as signal is stable after stopping. Inhibition assays were run in the presence or absence of various concentrations of inhibitors and at a fixed substrate concentration of 100 μM and 1% DMSO. First, inhibitor was serially diluted to the desired range of concentrations in 2% DMSO buffer. Next, 25 μL, of inhibitor solutions at various concentrations in 2% DMSO Buffer was added to 25 μL, of 4.0 nM enzyme and allowed to incubate at 25° C. for 5 minutes. 50 μL of 200 μM and 1% DMSO substrate was then added and allowed to react for 20 minutes. 100 μL of stop solution was added to reaction mixture, and immediately mixed and aliquoted in 45 μL triplicates to a CORNING 384 well black plate. Fluorescence signal was measured in a BioTek Neo 2 Plate reader set at excitation and emission wavelengths of 355 and 450 nm, respectively. % Activity was subsequently calculated for each inhibitor concentration against the fluorescence signal of uninhibited HexA. […]

[4] = target: β-N-acetylglucosaminidase (from jack bean); experiment: Inhibition assay against commercial β-N-acetylglucosaminidase (jack bean), p-nitrophenyl N-acetyl-β-D-glucosaminide substrate; type: biochemical; conditions: pH 5.5, 37° C.; average of three determinations ± s.e.m.; NI = no inhibition detected at 200 μM; read-out: Jack beans Hex
Procedure: as §1, §2

SMILES | Ki [1] [µM] | IC50 [2] [µM] | IC50 [3] [µM] | Ki [4] [µM]
CCC(=O)N[C@H]1CN2/C(=N/Cc3ccccc3)SC[C@@H]2[C@@H](O)[C@@H]1O [Compound 13, 2-Propanamido-5-N,6-S-(N′-benzyliminomethylidene)-1,2-dideoxy-6-thionojirimycin Hydrochloride] | > 200 | > 200 | > 200 | > 200
CCC(=O)N[C@H]1CN2/C(=N/Cc3cccc4ccccc34)SC[C@@H]2[C@@H](O)[C@@H]1O [Compound 14, 2-Propionamido-5-N,6-S-(N′-1-naphthylmethyliminomethylidene)-1,2-dideoxy-6-thionojirimycin hydrochloride] | > 200 | > 200 | > 200 | > 200
CCC(=O)N[C@H]1CN2/C(=N/Cc3ccc4[nH]ccc4c3)SC[C@@H]2[C@@H](O)[C@@H]1O [Compound 15, 2-Propionamido-5-N,6-S-(N′-5-indolylmethyliminomethylidene)-1,2-dideoxy-6-thionojirimycin hydrochloride] | > 200 | > 200 | > 200 | > 200
CC(C)C(=O)N[C@H]1CN2/C(=N/Cc3ccccc3)SC[C@@H]2[C@@H](O)[C@@H]1O [Compound 16, 2-Isobutanamido-5-N,6-S-(N′-benzyliminomethylidene)-1,2-dideoxy-6-thionojirimycin Hydrochloride] | > 200 | > 200 | > 200 | > 200

Now from value to compound:

Ki [1] [µM] | IC50 [2] [µM] | IC50 [3] [µM] | Ki [4] [µM] | SMILES
> 200 | > 200 | > 200 | > 200 | CCCC(=O)N[C@H]1CN2/C(=N/Cc3ccccc3)SC[C@@H]2[C@@H](O)[C@@H]1O [Compound 17, 2-Butanamido-5-N,6-S-(N′-benzyliminomethylidene)-1,2-dideoxy-6-thionojirimycin]
> 200 | > 200 | > 200 | > 200 | CCNC(=S)N[C@H]1CN2/C(=N/Cc3ccccc3)SC[C@@H]2[C@@H](O)[C@@H]1O [Compound 18, 2-Ethylthioureido-5-N,6-S-(N′-benzyliminomethylidene)-1,2-dideoxy-6-thionojirimycin]
> 200 | > 200 | > 200 | > 200 | CCCNC(=S)N[C@H]1CN2/C(=N/Cc3ccccc3)SC[C@@H]2[C@@H](O)[C@@H]1O [Compound 19, 2-Propylthioureido-5-N,6-S-(N′-benzyliminomethylidene)-1,2-dideoxy-6-thionojirimycin]
